We go through 1 compound from ChEMBL document CHEMBL5338706, “Discovery of a potent and selective proteolysis targeting chimera (PROTAC) degrader of NSD3 histone methyltransferase” (Eur J Med Chem, 2022).

Calls of active or inactive are those of the source. The calls are words filed in the database; no cut-off is given here.

Experiment [1] has as its target T1, Histone-lysine N-methyltransferase NSD3 (Homo sapiens) (UniProt Q9BZ95).
T1 sequence (whole entry): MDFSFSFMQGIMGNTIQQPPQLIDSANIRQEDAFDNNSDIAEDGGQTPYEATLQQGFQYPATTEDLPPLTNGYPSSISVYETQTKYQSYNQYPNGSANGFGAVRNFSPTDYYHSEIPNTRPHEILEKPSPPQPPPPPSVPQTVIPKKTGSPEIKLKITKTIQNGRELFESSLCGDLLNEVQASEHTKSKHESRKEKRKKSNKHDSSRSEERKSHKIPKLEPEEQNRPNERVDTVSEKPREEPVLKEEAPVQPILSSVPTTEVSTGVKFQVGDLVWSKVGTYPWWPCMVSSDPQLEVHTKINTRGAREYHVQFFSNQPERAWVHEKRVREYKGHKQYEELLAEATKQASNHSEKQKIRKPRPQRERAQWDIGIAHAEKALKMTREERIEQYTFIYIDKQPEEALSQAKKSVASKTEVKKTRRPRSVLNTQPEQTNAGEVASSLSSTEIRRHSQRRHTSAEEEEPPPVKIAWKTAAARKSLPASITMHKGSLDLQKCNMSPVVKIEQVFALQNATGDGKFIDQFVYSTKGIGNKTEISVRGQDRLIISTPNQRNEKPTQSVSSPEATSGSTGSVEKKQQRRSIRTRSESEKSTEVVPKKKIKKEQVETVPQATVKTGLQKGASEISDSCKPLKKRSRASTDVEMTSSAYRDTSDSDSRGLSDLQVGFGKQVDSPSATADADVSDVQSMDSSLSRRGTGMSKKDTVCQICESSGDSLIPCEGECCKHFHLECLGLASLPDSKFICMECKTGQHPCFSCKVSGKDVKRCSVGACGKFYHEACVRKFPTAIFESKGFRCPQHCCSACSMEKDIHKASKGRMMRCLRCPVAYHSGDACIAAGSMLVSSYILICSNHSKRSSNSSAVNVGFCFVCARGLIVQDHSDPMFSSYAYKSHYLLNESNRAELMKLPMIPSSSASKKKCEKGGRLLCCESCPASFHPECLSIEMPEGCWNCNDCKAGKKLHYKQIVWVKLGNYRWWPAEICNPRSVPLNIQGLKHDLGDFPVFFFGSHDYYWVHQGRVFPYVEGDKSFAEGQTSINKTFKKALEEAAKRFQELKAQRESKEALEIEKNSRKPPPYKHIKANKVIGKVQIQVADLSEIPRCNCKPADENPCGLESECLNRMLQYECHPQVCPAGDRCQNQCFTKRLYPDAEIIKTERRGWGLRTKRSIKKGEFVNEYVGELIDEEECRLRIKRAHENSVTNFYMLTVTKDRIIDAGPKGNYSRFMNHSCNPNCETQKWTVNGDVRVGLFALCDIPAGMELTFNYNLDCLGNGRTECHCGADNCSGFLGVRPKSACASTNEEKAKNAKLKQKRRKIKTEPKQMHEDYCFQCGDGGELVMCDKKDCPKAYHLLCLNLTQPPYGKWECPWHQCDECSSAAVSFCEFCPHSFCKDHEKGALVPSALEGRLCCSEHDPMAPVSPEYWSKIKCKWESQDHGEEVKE
The experiment can be described thus: Induction of NSD3 degradation in human NCI-H1703 cells at 3 uM incubated for 48 hrs in presence of MG132 by Western blot analysis. The format is cell-based. (In general: Immunoblotting shows a protein as a band on a membrane.)

Experiment [2] deals with T1, Histone-lysine N-methyltransferase NSD3 (Homo sapiens). Description: Induction of NSD3 degradation in human NCI-H1703 cells at 5 uM measured within 12 hrs by Western blot analysis. The format is cell-based.
Experiment [3] has as its system NCI-H1703. Description: Induction of apoptosis in human NCI-H1703 cells assessed as late apoptotic cells at 10 uM measured after 72 hrs by PI/Annexin-V staining based flow cytometry analysis (reference value: 3.00% ). Format: functional.
Experiment [4] relates to NCI-H1703. Description: Induction of apoptosis in human NCI-H1703 cells assessed as viable cells at […] measured after 72 hrs by PI/Annexin-V staining based flow cytometry analysis (reference value: 92.7% ). The format is functional. The note with it: dose 7.5 µM, read-out: Activity. On the technique in general: A flow cytometer gives signals particle by particle.

For `Cc1cc(CNCCCCCCCCCCC(=O)N[C@H](C(=O)N2C[C@H](O)C[C@H]2C(=O)N[C@@H](C)c2ccc(-c3scnc3C)cc2)C(C)(C)C)cc(C)c1-c1ncn(C)c1-c1ccnc2cc(F)ccc12`, in experiment [1], the outcome was inactive. Also, in experiment [2], the outcome was Active. Moreover, the Activity in experiment [3] was found to be 62.9%. In addition, the viability at […] in experiment [4] came to 66.7%.
